Test results reported in patent US6451341B1, “Time release formulation of vitamins, minerals and other beneficial supplements” (priority 1990, dated 2002).

Tests used:
skin tumors = assay: Effects of antioxidants on skin tumor promotion (DMBA initiation + TPA promotion), antioxidants applied with TPA; assay type: in vivo, mice (SENCAR); settings: 30 weeks
Text: In one important aspect of the present invention, the formulation includes at least one antioxidant. The antioxidant is preferably selected from the group consisting of butylated hydroxyanisole, butylated hydroxytoluene and propyl gallate. The inventive formulation may include one, or, more preferably, several of the preferred antioxidants in combination. According to one embodiment, the inventive formulation includes butylated hydroxyanisole (BHA) or butylated hydroxytoluene (BHT), and propyl gallate. BHA, BHT and propyl gallate are all antioxidants used to stabilize cosmetic, pharmaceutical, and food products. It has been reported that these agents protect normal cells against radiation, free radicals, toxic chemicals and chemical carcinogens. […] The SENCAR mouse is a valid testing system for the ability of a compound to inhibit tumor initiation and promotion. A good dose-response relationship exists for 7, 12-dimethylbenzanthracene to initiate skin tumors in these mice and they are sensitive to TPA (12-0-tetradecanoylphorbol-13-acetate) promotion [Slaga(1983) “Multistage Skin Carcinogenesis and Specificity of Inhibitors” in: Modulation and Mediation of Cancer by Vitamins, pp. 10-23.]. Further, the preferred antioxidants of the present invention have been reported to protect against cardiovascular disorders, enhance immune function and increase longevity. The preferred antioxidants of the present invention work synergistically with several vitamins, minerals, amino acids, enzymes, and other antioxidants or free radial scavengers included in the formulation of the present invention as will be described in detail below.

spontaneous tumors = assay: Effects of antioxidants in the diet on aging and spontaneous tumor formation in mice; assay type: in vivo; settings: 0.5% in normal laboratory chow; 100 SENCAR mice per group
Text: Table 2 illustrates the effects of certain antioxidant components of the present formulation on all the known spontaneous tumor formations and longevity in mice.

skin cancer = assay: Mouse skin carcinogenesis system; assay type: in vivo; settings: given alone
[1] = 0.5 mg applied simultaneously with TPA 2x/wk, 30 female SENCAR mice

| Compound | Tumor Response (% Inhibition) (skin tumors; [1]) | Increase in Lifespan (%) (spontaneous tumors) | Spontaneous Tumor Formation (% of Control) (spontaneous tumors) | other results |
| --- | --- | --- | --- | --- |
| COc1ccc(O)c(C(C)(C)C)c1 [BHA, butylated hydroxyanisole] | 35 | 132 | 46 % of Control | – |
| CC1=C(/C=C/C(C)=C/C=C/C(C)=C/C=C/C=C(C)/C=C/C=C(C)/C=C/C2=C(C)CCCC2(C)C)C(C)(C)CCC1 [B-carotene, Beta carotene] | 20 | – | – | inhibitory activity in mouse skin carcinogenesis (skin cancer): lack of an inhibitory activity |
| Vitamin E | – | – | – | Tumor Response (% Inhibition) (skin tumors; 0.1 mg applied simultaneously with TPA 2x/wk): 25 % Inhibition |
| Cc1cc(C(C)(C)C)c(O)c(C(C)(C)C)c1 [BHT, butylated hydroxytoluene] | 32 | 124 | 56 % of Control | – |
| [Se] [Selenium] | – | – | – | Tumor Response (% Inhibition) (skin tumors; 0.004 mg applied simultaneously with TPA 2x/wk): 23 % Inhibition |
| O=C1O[C@H]([C@@H](O)CO)C(O)=C1O [Vitamin C] | 30 | – | – | – |
| CCCOC(=O)c1cc(O)c(O)c(O)c1 [Propyl gallate, propyl gallate] | 40 | 127 | 62 % of Control | – |
